Assay results reported in patent US20040044006A1, “Methods of use of quinolone compounds against pneumococcal and haemophilus bacteria” (priority 1999, published 2004).
≈ marks a conversion by molar mass, not a printed value. Like-named read-outs stand apart in the source and are kept apart here.

What was measured:
[1] = test system: penicillin susceptible and resistant pneumococcal strains (2 quinolone resistant); assay: Time-kill testing of 12 pneumococcal strains; type: cell-based, Streptococcus pneumoniae; conditions: for concentration at which bactericidal after 24 h: 12 penicillin susceptible and resistant pneumococcal strains, bactericidal = ≧3 log10 cfu/ml (99.9%) reduction
Procedure: For time-kill studies, glass tubes containing 5 ml cation-adjusted Mueller-Hinton broth (Difco)+5% lysed horse blood with doubling antibiotic concentrations were inoculated with 5×10^5 to 5×10^6 cfu/ml and incubated at 35° C. in a shaking water bath. […] Growth controls with inoculum but no antibiotic were included with each experiment (Pankuch, et al., Antimicrob. Agents Chemother. 38:2065-2072, 1994; Pankuch, et al., Antimicrob. Agents Chemother. 40:1653-1656, 1996).
Lysed horse blood was prepared as described previously. The bacterial inoculum was prepared by diluting a 16 h broth (medium as above) culture in the same medium. Dilutions required to obtain the correct inoculum (5×10^5-5×10^6 cfu/ml) were determined by prior viability studies using each strain (Pankuch, et al., Antimicrob. Agents Chemother. 38:2065-2072, 1994; Pankuch, et al., Antimicrob. Agents Chemother. 40: 1653-1656, 1996).
To inoculate each tube of serially diluted antibiotic, 50 μl of diluted inoculum was delivered by pipette beneath the surface of the broth. Tubes were then vortexed and plated for viability counts within 10 min (approximately 0.2 h). The original inoculum was determined by using the untreated growth control. Only tubes containing an initial inoculum within the range of 5×10^5 to 5×10^6 cfu/ml were acceptable (Pankuch, et al., Antimicrob. Agents Chemother. 38:2065-2072, 1994; Pankuch, et al., Antimicrob. Agents Chemother. 40:1653-1656, 1996).
Viability counts of antibiotic-containing suspensions were performed by plating ten-fold dilutions of 0.1 ml aliquots from each tube in sterile Mueller-t-Hinton broth onto trypticase soy agar 5% sheep blood agar plates (BBL). Recovery plates were incubated for up to 72 h. Colony Counts were performed on plates yielding 30-300 colonies. The lower limit of sensitivity of colony counts was 300 cfu/ml (Pankuch, et al., Antimicrob. Agents Chemother. 38:2065-2072, 1994; Pankuch, et al., Antimicrob. Agents Chemother. 40:1653-1656, 1996).
Time-kill assays were analysed by determining the number of strains which yielded a log10 cfu/ml of −1, −2 and −3 at 0, 3, 6, 12 and 24 h, compared to counts at time 0 h. Antimicrobials were considered bactericidal at the lowest concentration that reduced the original inoculum by ≧3 log10 cfu/ml (99.9%) at each of the time periods, and bacteriostatic if the inoculum was reduced by 0-3 log10 cfu/ml. […] The problem of bacterial carryover was addressed as described previously. For macrolide time-kill testing, only strains with MICs≦4.0 μg/ml were tested (Pankuch, et al., Antimicrob. Agents Chemother. 38:2065-9072, 1994; Pankuch, et al., Antimicrob. Agents Chemother. 40:1653-1656, 1996).

pneumococcal strains = assay: Microbroth dilution MICs of strains tested by time-kill and PAE; type: cell-based; conditions: Streptococcus pneumoniae, read-out: Microdilution MIC
Procedure, shortened: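 S. pneumoniae ATCC 49619 served as control in each run. For the 12 time-kill and 6 PAE strains, MICs came from NCCLS microbroth dilution using cation-adjusted Mueller-Hinton broth plus 5% lysed defibrinated horse blood.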

[2] = test system: quinolone resistant pneumococci; assay: Determination of efflux mechanism: MICs in the presence and absence of reserpine; type: cell-based, Streptococcus pneumoniae; conditions: for lower MICs in the presence of reserpine, fold range over affected strains: 28 quinolone resistant strains; for lower MICs in the presence of reserpine, fold range over affected strains / number of strains with lower MICs in the presence of reserpine / lower MIC in the presence of reserpine (efflux mechanism): 10 μg/ml reserpine; for number of strains with lower MICs in the presence of reserpine: of 28 quinolone resistant strains
Procedure: MICs were determined in the presence and absence of 10 μg/ml of reserpine (Sigma Chemicals, St. Louis, Mo.) as known in the art.
MICs were determined in the presence and absence of […] of reserpine (Sigma Chemicals, St. Louis, Mo., USA) as described previously (Brenwald, et al., Antimicrob. Agents Chemother. 42:2039-2035, 1998 and Davies, et al., Antimicrob. Agents Chemother. 43:1177-1182S, 1999).

[3] = test system: quinolone susceptible pneumococci (ciprofloxacin MICs ≦4.0 μg/ml); assay: Agar dilution MICs of 207 quinolone susceptible pneumococcal strains; type: cell-based, Streptococcus pneumoniae; conditions: Streptococcus pneumoniae, agar dilution; for MIC90: read-out: MIC90; for MIC: read-out: MIC range
Procedure, shortened: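 Agar dilution MICs by prior methods on Mueller-Hinton agar with 5% sheep blood; S. pneumoniae ATCC 49619 among QC strains each run. Isolates were recent U.S. strains plus some from South Africa, Europe and Korea.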

[4] = strain 1 (S) penicillin susceptible
[5] = strain 2 (S) penicillin susceptible
[6] = strain 3 (S) penicillin susceptible, quinolone-resistant
[7] = strain 4 (S) penicillin susceptible, quinolone-resistant
[8] = strain 5 (I) penicillin intermediate
[9] = strain 6 (I) penicillin intermediate
[10] = strain 7 (I) penicillin intermediate
[11] = strain 8 (I) penicillin intermediate
[12] = strain 9 (R) penicillin resistant
[13] = strain 11 (R) penicillin resistant
[14] = strain 12 (R) penicillin resistant
[15] = all 207 strains (64 penicillin susceptible, 68 intermediate, 75 resistant)

Structure (SMILES) | concentration at which bactericidal after 24 h [1] | MIC (pneumococcal strains; [4]) | MIC (pneumococcal strains; [5]) | MIC (pneumococcal strains; [6]) | MIC (pneumococcal strains; [7]) | MIC (pneumococcal strains; [8]) | MIC (pneumococcal strains; [9]) | MIC (pneumococcal strains; [10]) | MIC (pneumococcal strains; [11]) | MIC (pneumococcal strains; [12]) | MIC (pneumococcal strains; strain 10 (I)) | MIC (pneumococcal strains; [13]) | MIC (pneumococcal strains; [14]) | MIC50 ([3]; Penicillin I strains) | MIC90 ([3]; Penicillin I strains) | MIC ([3]; Penicillin I strains) | MIC50 ([3]; Penicillin R strains) | MIC90 ([3]; Penicillin R strains) | MIC ([3]; Penicillin R strains) | MIC50 ([3]; Penicillin S strains) | further results
Cc1c(F)c(N2CCNC(C)C2)cc2c1c(=O)c(C(=O)O)cn2C1CC1 (stereo not drawn) [Grepafloxacin, grepafloxacin] | 4 ×MIC | 0.06 µg/mL (≈ 0.167 µM) | 0.06 µg/mL (≈ 0.167 µM) | 16 µg/mL (≈ 44.5 µM) | 8 µg/mL (≈ 22.3 µM) | 0.125 µg/mL (≈ 0.348 µM) | 0.125 µg/mL (≈ 0.348 µM) | 0.125 µg/mL (≈ 0.348 µM) | 0.125 µg/mL (≈ 0.348 µM) | 0.25 µg/mL (≈ 0.696 µM) | 0.125 µg/mL (≈ 0.348 µM) | 0.125 µg/mL (≈ 0.348 µM) | 0.25 µg/mL (≈ 0.696 µM) | 0.125 µg/mL (≈ 0.348 µM) | 0.5 µg/mL (≈ 1.39 µM) | 0.03 to 0.5 µg/mL (≈ 0.0835 to 1.39 µM) | 0.25 µg/mL (≈ 0.696 µM) | 0.5 µg/mL (≈ 1.39 µM) | 0.03 to 0.5 µg/mL (≈ 0.0835 to 1.39 µM) | 0.125 µg/mL (≈ 0.348 µM) | lower MICs in the presence of reserpine, fold range over affected strains [2]: 2 ×; number of strains with lower MICs in the presence of reserpine [2]: 3 strains; Number of dilutions decrease after incubation with reserpine ([2]; strain 5): 2X; lower MIC in the presence of reserpine (efflux mechanism) ([2]; strain 5): 2X; Number of dilutions decrease after incubation with reserpine ([2]; strain 12): 2X; lower MIC in the presence of reserpine (efflux mechanism) ([2]; strain 12): 2X; Number of dilutions decrease after incubation with reserpine ([2]; strain 28): 2X; lower MIC in the presence of reserpine (efflux mechanism) ([2]; strain 28): 2X; MIC90 ([3]; Penicillin S strains): 0.5 µg/mL (≈ 1.39 µM); MIC ([3]; Penicillin S strains): 0.03 to 1 µg/mL (≈ 0.0835 to 2.78 µM); MIC50 [3, 15]: 0.125 µg/mL (≈ 0.348 µM); MIC90 [3, 15]: 0.5 µg/mL (≈ 1.39 µM)
C[C@@H]1CN(c2c(F)c(N)c3c(=O)c(C(=O)O)cn(C4CC4)c3c2F)C[C@H](C)N1 [Sparfloxacin, sparfloxacin] | 2 ×MIC | 0.125 µg/mL (≈ 0.319 µM) | 0.25 µg/mL (≈ 0.637 µM) | 32 µg/mL (≈ 81.5 µM) | 16 µg/mL (≈ 40.8 µM) | 0.5 µg/mL (≈ 1.27 µM) | 0.25 µg/mL (≈ 0.637 µM) | 0.25 µg/mL (≈ 0.637 µM) | 0.25 µg/mL (≈ 0.637 µM) | 0.5 µg/mL (≈ 1.27 µM) | 0.25 µg/mL (≈ 0.637 µM) | 0.25 µg/mL (≈ 0.637 µM) | 0.5 µg/mL (≈ 1.27 µM) | 0.5 µg/mL (≈ 1.27 µM) | 0.5 µg/mL (≈ 1.27 µM) | 0.06 to 2 µg/mL (≈ 0.153 to 5.1 µM) | 0.5 µg/mL (≈ 1.27 µM) | 0.5 µg/mL (≈ 1.27 µM) | 0.06 to 1 µg/mL (≈ 0.153 to 2.55 µM) | 0.5 µg/mL (≈ 1.27 µM) | lower MICs in the presence of reserpine, fold range over affected strains [2]: 2 ×; number of strains with lower MICs in the presence of reserpine [2]: one; Number of dilutions decrease after incubation with reserpine ([2]; strain 5): 2X; lower MIC in the presence of reserpine (efflux mechanism) ([2]; strain 5): 2X; MIC90 ([3]; Penicillin S strains): 1 µg/mL (≈ 2.55 µM); MIC ([3]; Penicillin S strains): 0.03 to 1 µg/mL (≈ 0.0765 to 2.55 µM); MIC50 [3, 15]: 0.5 µg/mL (≈ 1.27 µM); MIC90 [3, 15]: 0.5 µg/mL (≈ 1.27 µM)
N[C@@H]1[C@H]2CN(c3nc4c(cc3F)c(=O)c(C(=O)O)cn4-c3ccc(F)cc3F)C[C@@H]12 [Trovafloxacin, trovafloxacin] | 4 ×MIC | 0.06 µg/mL (≈ 0.144 µM) | 0.06 µg/mL (≈ 0.144 µM) | 8 µg/mL (≈ 19.2 µM) | 4 µg/mL (≈ 9.61 µM) | 0.06 µg/mL (≈ 0.144 µM) | 0.06 µg/mL (≈ 0.144 µM) | 0.06 µg/mL (≈ 0.144 µM) | 0.125 µg/mL (≈ 0.3 µM) | 0.125 µg/mL (≈ 0.3 µM) | 0.06 µg/mL (≈ 0.144 µM) | 0.06 µg/mL (≈ 0.144 µM) | 0.125 µg/mL (≈ 0.3 µM) | 0.125 µg/mL (≈ 0.3 µM) | 0.25 µg/mL (≈ 0.6 µM) | 0.016 to 1 µg/mL (≈ 0.0384 to 2.4 µM) | 0.125 µg/mL (≈ 0.3 µM) | 0.25 µg/mL (≈ 0.6 µM) | 0.03 to 0.25 µg/mL (≈ 0.0721 to 0.6 µM) | 0.125 µg/mL (≈ 0.3 µM) | bactericidal activity for the two quinolone resistant pneumococcal strains ([1]; two quinolone resistant strains): bactericidal at the microbroth MIC; MIC90 ([3]; Penicillin S strains): 0.25 µg/mL (≈ 0.6 µM); MIC ([3]; Penicillin S strains): 0.03 to 0.5 µg/mL (≈ 0.0721 to 1.2 µM); MIC90 [3, 15]: 0.25 µg/mL (≈ 0.6 µM)
